Converted amounts (≈) assume the structure as drawn. Read-outs that look alike come from different tables or passages of the source.
Tests used:
Format in all cases: cell-based
B. catarrhalis W-0500 = assay: MIC, agar plate dilution method; details: Moraxella catarrhalis
Method: (§1) The effect of the first aspect of the present invention resides in the creation of a novel and useful 16-membered macrolide derivative. Antimicrobial activities of the compounds of the present invention were determined by measuring minimum inhibitory concentration (MIC). Minimum inhibitory concentration was determined by the agar plate dilution method in the following manner.
(§2) Test strains were subjected to seed culture using Sensitivity test broth (STB, Nissui Pharmaceutical) except that the strains belonging to the genus Streptococcus, Branhamella and Haemophilus were cultured on blood agar plate. A 5 μl portion of cell suspension of the test strains having about 10^6 CFU/ml was inoculated into Sensitivity disk agar (SDA, Nissui Pharmaceutical) supplemented with 5% horse blood and incubated at 37° C. for 20 hours. Then, MIC was measured. […] Antimicrobial activities in vitro of the compounds (1) and (2) are shown in Table 1, and those of the compounds (3) and (4) in Table 3.

B. catarrhalis W-0506 = assay: MIC, agar plate dilution method; details: Moraxella catarrhalis
Method: as §1, §2

E. faecalis W-73 = assay: MIC, agar plate dilution method; details: Enterococcus faecalis, W73, 20 h, read-out: Antimicrobial activity (MIC)
Method: as §1, §2

H. influenzae Type b = assay: MIC, agar plate dilution method; details: Haemophilus influenzae
Method: as §1, §2

K. pneumoniae PCI602 = assay: MIC, agar plate dilution method; details: Klebsiella pneumoniae, 37° C., SDA with 5% horse blood, read-out: Antimicrobial activity (MIC)
Method: as §1, §2

M. luteus ATCC9341 = assay: MIC, agar plate dilution method; details: Micrococcus luteus
Method: as §1, §2

S. aureus 209P JC-1 = assay: MIC, agar plate dilution method; details: Staphylococcus aureus, 209P, 20 h
Method: as §1, §2

S. aureus M126 = assay: MIC, agar plate dilution method; details: Staphylococcus aureus, 37° C., 20 hours, SDA with 5% horse blood, read-out: Antimicrobial activity (MIC)
Method: as §1, §2

S. aureus M133 = assay: MIC, agar plate dilution method; details: Staphylococcus aureus, M133, 20 h
Method: as §1, §2

S. aureus MS15009/pMS98 = assay: MIC, agar plate dilution method; details: Staphylococcus aureus, MS15009/PMS98, 20 h, read-out: Antimicrobial activity (MIC), 37° C., 20 hours, SDA with 5% horse blood
Method: as §1, §2

S. aureus MS15009/pMS99 = assay: MIC, agar plate dilution method; details: Staphylococcus aureus, MS15009/PMS99, 20 h, read-out: Antimicrobial activity (MIC)
Method: as §1, §2

S. aureus MS15026 = assay: MIC, agar plate dilution method; details: Staphylococcus aureus, 37° C., 20 hours, SDA with 5% horse blood, read-out: Antimicrobial activity (MIC)
Method: as §1, §2

S. aureus MS15027 = assay: MIC, agar plate dilution method; details: Staphylococcus aureus
Method: as §1, §2

S. epidermidis ATCC14990 = assay: MIC, agar plate dilution method; details: Staphylococcus epidermidis
Method: as §1, §2

S. pneumoniae IP692 = assay: MIC, agar plate dilution method; details: Streptococcus pneumoniae, IP692, 20 h
Method: as §1, §2

S. pneumoniae Type 1 = assay: MIC, agar plate dilution method; details: Streptococcus pneumoniae
Method: as §1, §2

test strains = assay: Antimicrobial activity in vitro, test strains overall; details: for antimicrobial activities compared with starting materials (1), (2) and (33): 9-O-acylated vs free 9-hydroxyl; for antimicrobial activities compared with compound (1): vs compound (1)
Method: as §1, §2

E. coli NIHJ JC-2 = assay: MIC, agar plate dilution method; details: Escherichia coli, NIHJJC2, 20 h, 37° C., SDA with 5% horse blood, read-out: Antimicrobial activity (MIC)
Method: as §1, §2

S. pyogenes Cook = assay: MIC, agar plate dilution method; details: Streptococcus pyogenes; 37° C., 20 hours, SDA with 5% horse blood; read-out: Antimicrobial activity (MIC)
Method: as §1, §2

[1] = W0500, 37° C., 20 hours, SDA with 5% horse blood, read-out: Antimicrobial activity (MIC)
[2] = W0506, 37° C., 20 hours, SDA with 5% horse blood, read-out: Antimicrobial activity (MIC)
[3] = 37° C., 20 hours, SDA with 5% horse blood, read-out: Antimicrobial activity (MIC)
[4] = ATCC9341, 37° C., 20 hours, SDA with 5% horse blood, read-out: Antimicrobial activity (MIC)
[5] = MS15027, 37° C., 20 hours, SDA with 5% horse blood, read-out: Antimicrobial activity (MIC)
[6] = ATCC14990, 37° C., 20 hours, SDA with 5% horse blood, read-out: Antimicrobial activity (MIC)
[7] = TYPE1, 37° C., 20 hours, SDA with 5% horse blood, read-out: Antimicrobial activity (MIC)
[8] = 20 h, read-out: Antimicrobial activity (MIC), 37° C., 20 hours, SDA with 5% horse blood
[9] = ATCC9341, 20 h, read-out: Antimicrobial activity (MIC), 37° C., 20 hours, SDA with 5% horse blood
[10] = read-out: Antimicrobial activity (MIC), 37° C., 20 hours, SDA with 5% horse blood
[11] = MS15027, 20 h, read-out: Antimicrobial activity (MIC), 37° C., 20 hours, SDA with 5% horse blood
[12] = ATCC14990, 20 h, read-out: Antimicrobial activity (MIC), 37° C., 20 hours, SDA with 5% horse blood
[13] = TYPE1, 20 h, read-out: Antimicrobial activity (MIC), 37° C., 20 hours, SDA with 5% horse blood

CCC(=O)O[C@@H]1CC(=O)O[C@H](C)C/C=C/C=C/[C@H](O)[C@H](C)C[C@H](CC=O)[C@H](O[C@@H]2O[C@H](C)[C@@H](O[C@H]3C[C@@](C)(O)[C@@H](OC(=O)CC)[C@H](C)O3)[C@H](N(C)C)[C@H]2O)[C@H]1OC [MDM, midecamycin A1, reference compound]
MIC (B. catarrhalis W-0500; [1]): 3.13 µg/mL (≈ 3.85 µM) | MIC (B. catarrhalis W-0506; [2]): 3.13 µg/mL (≈ 3.85 µM) | MIC (E. faecalis W-73; 37° C., 20 hours, SDA with 5% horse blood): 3.13 µg/mL (≈ 3.85 µM) | MIC (H. influenzae Type b; [3]): 25 µg/mL (≈ 30.7 µM) | MIC (K. pneumoniae PCI602; PCI602, 20 hours): > 100 µg/mL | MIC (M. luteus ATCC9341; [4]): 0.05 µg/mL (≈ 0.0614 µM) | MIC (S. aureus 209P JC-1; [3]): 0.39 µg/mL (≈ 0.479 µM) | MIC (S. aureus M126): > 100 µg/mL | MIC (S. aureus M133; [3]): 0.78 µg/mL (≈ 0.958 µM) | MIC (S. aureus MS15009/pMS98): 0.39 µg/mL (≈ 0.479 µM) | MIC (S. aureus MS15009/pMS99): > 100 µg/mL | MIC (S. aureus MS15026): > 100 µg/mL | MIC (S. aureus MS15027; [5]): 0.78 µg/mL (≈ 0.958 µM) | MIC (S. epidermidis ATCC14990; [6]): 0.78 µg/mL (≈ 0.958 µM) | MIC (S. pneumoniae IP692; [3]): 0.39 µg/mL (≈ 0.479 µM) | MIC (S. pneumoniae Type 1; [7]): 0.39 µg/mL (≈ 0.479 µM)

CCCC(=O)O[C@H]1[C@H](C)O[C@@H](O[C@H]2[C@H](N(C)C)[C@@H](O)[C@H](O[C@H]3[C@@H](CC=O)C[C@@H](C)[C@@H](OC(=O)CC)/C=C/C=C/C[C@@H](C)OC(=O)C[C@@H](O)[C@@H]3OC)O[C@@H]2C)C[C@@]1(C)OC [(40), 9-O-propionyl-3"-O-methylleucomycin A5]
antimicrobial activities compared with starting materials (1), (2) and (33) (test strains): strong antimicrobial activities by themselves though slightly lower than those of their starting materials

CCC(=O)O[C@@H]1CC(=O)O[C@H](C)C/C=C/C=C/[C@H](O)[C@H](C)C[C@H](CC=O)[C@H](O[C@@H]2O[C@H](C)[C@@H](O[C@H]3C[C@@](C)(O)[C@@H](O)[C@H](C)O3)[C@H](N(C)C)[C@H]2O)[C@H]1OC [MDM-M1, midecamycin M1, reference compound]
MIC (B. catarrhalis W-0500; [1]): 25 µg/mL (≈ 33 µM) | MIC (B. catarrhalis W-0506; [2]): 25 µg/mL (≈ 33 µM) | MIC (E. coli NIHJ JC-2): > 100 µg/mL | MIC (E. faecalis W-73): 12.5 µg/mL (≈ 16.5 µM) | MIC (H. influenzae Type b; [8]): 100 µg/mL (≈ 132 µM) | MIC (K. pneumoniae PCI602; PCI602, 20 h): > 100 µg/mL | MIC (M. luteus ATCC9341; [9]): 0.39 µg/mL (≈ 0.515 µM) | MIC (S. aureus 209P JC-1; [10]): 6.25 µg/mL (≈ 8.25 µM) | MIC (S. aureus M126): > 100 µg/mL | MIC (S. aureus M133; [10]): 12.5 µg/mL (≈ 16.5 µM) | MIC (S. aureus MS15009/pMS98): 6.25 µg/mL (≈ 8.25 µM) | MIC (S. aureus MS15009/pMS99): > 100 µg/mL | MIC (S. aureus MS15026): > 100 µg/mL | MIC (S. aureus MS15027; [11]): 6.25 µg/mL (≈ 8.25 µM) | MIC (S. epidermidis ATCC14990; [12]): 12.5 µg/mL (≈ 16.5 µM) | MIC (S. pneumoniae IP692; [10]): 0.78 µg/mL (≈ 1.03 µM) | MIC (S. pneumoniae Type 1; [13]): 0.78 µg/mL (≈ 1.03 µM) | MIC (S. pyogenes Cook): 1.56 µg/mL (≈ 2.06 µM)

CCOC(C)O[C@H]1/C=C/C=C/C[C@@H](C)OC(=O)C[C@@H](OC(=O)CC)[C@H](OC)[C@@H](O[C@@H]2O[C@H](C)[C@@H](O[C@H]3C[C@@](C)(OC)[C@@H](OC(=O)CC)[C@H](C)O3)[C@H](N(C)C)[C@H]2O)[C@@H](CC=O)C[C@H]1C (single isomer, unassigned) [(16L)]
antimicrobial activities compared with compound (1) (test strains): inferior to those of the compound (1)

CCC(=O)O[C@H]1[C@H](C)O[C@@H](O[C@H]2[C@H](N(C)C)[C@@H](O)[C@H](O[C@H]3[C@@H](CC=O)C[C@@H](C)[C@@H](O)/C=C/C=C/C[C@@H](C)OC(=O)C[C@@H](O)[C@@H]3OC)O[C@@H]2C)C[C@@]1(C)O [LM-A7, leucomycin A7, reference compound]
MIC (B. catarrhalis W-0500; W0500, 20 h, read-out: Antimicrobial activity (MIC), 37° C., 20 hours, SDA with 5% horse blood): 12.5 µg/mL (≈ 16.5 µM) | MIC (B. catarrhalis W-0500; [1]): 0.78 µg/mL (≈ 1.03 µM) | MIC (B. catarrhalis W-0506; W0506, 20 h, read-out: Antimicrobial activity (MIC), 37° C., 20 hours, SDA with 5% horse blood): 12.5 µg/mL (≈ 16.5 µM) | MIC (B. catarrhalis W-0506; [2]): 0.78 µg/mL (≈ 1.03 µM) | MIC (E. coli NIHJ JC-2): > 100 µg/mL | MIC (H. influenzae Type b; [8]): 50 µg/mL (≈ 66 µM) | MIC (H. influenzae Type b; [3]): 6.25 µg/mL (≈ 8.25 µM) | MIC (K. pneumoniae PCI602; PCI602, 20 h): > 100 µg/mL | MIC (M. luteus ATCC9341; [9]): 0.2 µg/mL (≈ 0.264 µM) | MIC (M. luteus ATCC9341; [4]): 0.05 µg/mL (≈ 0.066 µM) | MIC (S. aureus M126): > 100 µg/mL | MIC (S. aureus MS15009/pMS99): > 100 µg/mL | MIC (S. aureus MS15026): > 100 µg/mL | MIC (S. aureus MS15027; [11]): 3.13 µg/mL (≈ 4.13 µM) | MIC (S. aureus MS15027; [5]): 0.39 µg/mL (≈ 0.515 µM) | MIC (S. epidermidis ATCC14990; [12]): 3.13 µg/mL (≈ 4.13 µM) | MIC (S. epidermidis ATCC14990; [6]): 0.39 µg/mL (≈ 0.515 µM) | MIC (S. pneumoniae Type 1; [13]): 0.2 µg/mL (≈ 0.264 µM) | MIC (S. pneumoniae Type 1; [7]): 0.39 µg/mL (≈ 0.515 µM) | MIC (S. pyogenes Cook): 0.39 µg/mL (≈ 0.515 µM)

CCCC(=O)O[C@H]1[C@H](C)O[C@@H](O[C@H]2[C@H](N(C)C)[C@@H](O)[C@H](O[C@H]3[C@@H](CC=O)C[C@@H](C)[C@@H](OC(C)=O)/C=C/C=C/C[C@@H](C)OC(=O)C[C@@H](O)[C@@H]3OC)O[C@@H]2C)C[C@@]1(C)OC [(39), 9-O-acetyl-3"-O-methylleucomycin A5]
antimicrobial activities compared with starting materials (1), (2) and (33) (test strains): strong antimicrobial activities by themselves though slightly lower than those of their starting materials

CCC(=O)O[C@H]1[C@H](C)O[C@@H](O[C@H]2[C@H](N(C)C)[C@@H](O)[C@H](O[C@H]3[C@@H](CC=O)C[C@@H](C)[C@@H](OC(C)=O)/C=C/C=C/C[C@@H](C)OC(=O)C[C@@H](O)[C@@H]3OC)O[C@@H]2C)C[C@@]1(C)OC [(6), 9-O-acetyl-3"-O-methylleucomycin A7]
antimicrobial activities compared with starting materials (1), (2) and (33) (test strains): strong antimicrobial activities by themselves though slightly lower than those of their starting materials

CCOC(C)O[C@H]1/C=C/C=C/C[C@@H](C)OC(=O)C[C@@H](OC(=O)CC)[C@H](OC)[C@@H](O[C@@H]2O[C@H](C)[C@@H](O[C@H]3C[C@@](C)(OC)[C@@H](OC(=O)CC)[C@H](C)O3)[C@H](N(C)C)[C@H]2O)[C@@H](CC=O)C[C@H]1C (single isomer, unassigned) [(16H)]
antimicrobial activities compared with compound (1) (test strains): inferior to those of the compound (1)

— patent publication US5602106A, “16-membered macrolide derivatives” (priority 1993, dated 1997)
